Measured values published in US20110318298A1, “VIRAL INFECTION THERAPEUTIC DRUG CONTAINING POLYALKYLENEIMINE” (Nippon Shokubai Co., Ltd., priority 2008, published 2011).
Values after ≈ are worked out from the molar mass of the structure shown. Where two headings read alike, the source gives them in different places.

Key:
HSV-2 [1] = assay: Anti-viral activity on HSV-2, plaque assaying in Vero cells; conditions: Human alphaherpesvirus 2, Vero
HSV-2 [2] = assay: Inhibitory effect on HSV-2 virus invasion of the cells (Vero cells, 37° C.); type: cell-based, herpes simplex virus type 2; conditions: for Amount of virus invaded in 30 minutes / Amount of virus invaded in 3 hours: Vero cells, 37° C., control = 100%
From the text: Subsequently, the inhibitory effect of polyethyleneimine in the stage in which HSV-2 adsorbed to the host cells invades the cells was investigated.

HSV-2 [3] = assay: Comparison of SP-012 and acyclovir in HSV-2-infected mice (Example 9); conditions: for Number of death/total number: 0.2 mg per administration to the genital until seven days after infection, 15 days observation; for Number of HSV-2 positive mouse/total number: genital wash, first day to 12 days after infection
Method: Five to six-week-old female BALB/c mice were locally (genital) inoculated with HSV-2 in an amount of 20 μl (containing a reduced viral amount of 1×10^4 PFU per mouse in consideration of tracing also untreated control mice). […] From the first day to 12 days after the viral infection, the genital was washed with phosphate-buffered physiological saline every day, and the amount of virus therein was measured in each mouse. Also, for 15 days, the severity of the development of the disease and the case of death were recorded.

in vitro = conditions: African green monkey
Method: A test for evaluation of the cytotoxicity of polyethyleneimine in each cell was carried out according to the following procedure.
The cell proliferation count was then measured by trypan blue staining.

HSV-2 [4] = assay: Inhibitory effect on HSV-2 virus adsorption to the cells (Vero cells, 4° C.); conditions: for Amount of virus adsorbed to host cells: Vero cells, 4° C. one hour, control = 100%
MDCK cells = assay: Cytotoxicity (CC50), cell count by trypan blue staining, MDCK cells; type: cell-based, dog

## Nc1nc2c(ncn2COCCO)c(=O)[nH]1 [Acyclovir, acyclovir]
HSV-2 [1]; read-out: Anti-viral activity (IC50) A
  IC50: 0.91 µg/mL (≈ 4.04 µM)
HSV-2 [1]; read-out: Anti-viral activity (IC50) B
  IC50: 0.92 µg/mL (≈ 4.09 µM)
HSV-2 [2]; 1 μg/ml
  Amount of virus invaded in 30 minutes: 99%
HSV-2 [2]; 10 μg/ml
  Amount of virus invaded in 30 minutes: 94%
HSV-2 [2]; 100 μg/ml
  Amount of virus invaded in 30 minutes: 87%
  Amount of virus invaded in 3 hours: 89%
HSV-2 [2]; 1000 μg/ml
  Amount of virus invaded in 30 minutes: 68%
  Amount of virus invaded in 3 hours: Toxic
HSV-2 [2]; 10000 μg/ml
  Amount of virus invaded in 30 minutes: Toxic
  Amount of virus invaded in 3 hours: Toxic
HSV-2 [2]; over the tested concentrations
  Inhibition of viral invasion, overall finding: did not inhibit HSV-2 virus invasion of the cells
HSV-2 [3]
  Number of death/total number: 0/10
HSV-2 [3]; listed as acyclovir
  Number of death/total number: No mice died
HSV-2 [3]; 0.2 mg per administration, 10 mice
  Development of the disease (genital inflammation): transient inflammation
HSV-2 [3]; 0.2 mg per administration
  Number of HSV-2 positive mouse/total number: 1/10
HSV-2 [3]; 0.2 mg per administration, listed as acyclovir
  Number of HSV-2 positive mouse/total number: the virus was detected in one out of 10 mice
In vitro
  CC50 at 72 h: 890 µg/mL (≈ 3950 µM)
HSV-2 [4]; 100 μg/ml
  Amount of virus adsorbed to host cells: 76%
HSV-2 [4]; 1000 μg/ml
  Amount of virus adsorbed to host cells: Toxic
HSV-2 [4]; 10000 μg/ml
  Amount of virus adsorbed to host cells: Toxic
HSV-2 [4]; over the tested concentrations
  Inhibition of viral adsorption, overall finding: almost no dose-dependent adsorption-inhibitory effect

## polyethyleneimine [SP-012]
MDCK cells
  Cytotoxicity (CC50): 0.34 μl/ml

## polyethyleneimine [SP-018]
Vero cells
  Cytotoxicity (CC50): 0.057 μl/ml
MDCK cells
  Cytotoxicity (CC50): 0.064 μl/ml

## polyethyleneimine [SP-200]
Vero cells
  Cytotoxicity (CC50): 0.0045 µg/mL

## polyethyleneimine [SP-006]
Vero cells
  Cytotoxicity (CC50): 1.1 μl/ml
MDCK cells
  Cytotoxicity (CC50): 0.57 μl/ml

## polyethyleneimine [P-1000]
Vero cells
  Cytotoxicity (CC50): 0.0044 μl/ml

## polyethyleneimine [SP-003]
Vero cells
  Cytotoxicity (CC50): 0.071 μl/ml
MDCK cells
  Cytotoxicity (CC50): 0.057 μl/ml
